These compounds were tested against T1, PI3Kβ (recombinant truncated form (ΔN1-108) of the human p110β subunit of PI3K) (Homo sapiens, UniProt P42338) (assay: Solid-phase lipid kinase assay of PI3Kβ). Conditions: 7.5 ng protein/well, final 10 μM ATP, 2 h at rt.
T1 construct: His6 (N); made in house; host or cells: Spodoptera frugiperda Sf9 insect cells
Assay type: biochemical
Method: To assess inhibition of PI3Kα by compounds, the Maxisorp™ plates were coated with 50 μL/well of a solution containing 50 μg/ml PtdIns and 50 μg/ml PtdSer dissolved in chloroform:ethanol (3:7). The plates were subsequently air-dried by incubation for at least 2 h in a fume hood. The reaction was set up by mixing 25 μL/well of assay buffer 2×(100 mM MOPSO/NaOH, 0.2 M NaCl, pH 7.0, 8 mM MgCl2, 2 mg/mL BSA (fatty acid-free)), and 7.5 ng/well PI3Kα in the lipid pre-coated plate. Test compounds at different concentrations (0.0, 0.003, 0.01 0.03, 0.1, 0.3, 1.0, 3.0 and 10 μM) were added in 2% DMSO. The reaction was initiated by adding 20 μL/well of ATP mix (final 10 μM ATP; 0.05 μCi/well [γ^33P]ATP). After incubation at rt for 2 h, the reaction was terminated by adding 50 μl/well stop solution (50 mM EDTA, pH 8.0). The plate was then washed twice with Tris-buffered saline (TBS, pH 7.4). MicroScint PS™ (PACKARD) scintillation mix was added at 100 μL/well, and radioactivity was counted using a TopCount™ (PACKARD) scintillation counter.
The inhibition percent at each concentration of compound was calculated, and IC50 values were determined from the inhibition of curve.
A recombinant truncated form (ΔN1-108) of the human p110β subunit of PI3K with an N-terminal His6-Tag was expressed in S. frugiperda 9 insect cells. Recombinant human PI3Kγ (full length human PI3K p110γ fused with a His6-tag at the C-terminus expressed in S. frugiperda 9 insect cells) was obtained from ALEXIS BIOCHEMICALS (#201-055-0010; San Diego, Calif.).
Kinase assays using recombinant truncated p110β or the full length p110γ were performed in a similar manner as described in the determination of IC50 values of compounds in the kinase assay of PI3Kα except that these isoforms were assayed using 7.5 ng and 25.0 ng of protein/well, respectively.

T1 sequence (P42338 109-1070): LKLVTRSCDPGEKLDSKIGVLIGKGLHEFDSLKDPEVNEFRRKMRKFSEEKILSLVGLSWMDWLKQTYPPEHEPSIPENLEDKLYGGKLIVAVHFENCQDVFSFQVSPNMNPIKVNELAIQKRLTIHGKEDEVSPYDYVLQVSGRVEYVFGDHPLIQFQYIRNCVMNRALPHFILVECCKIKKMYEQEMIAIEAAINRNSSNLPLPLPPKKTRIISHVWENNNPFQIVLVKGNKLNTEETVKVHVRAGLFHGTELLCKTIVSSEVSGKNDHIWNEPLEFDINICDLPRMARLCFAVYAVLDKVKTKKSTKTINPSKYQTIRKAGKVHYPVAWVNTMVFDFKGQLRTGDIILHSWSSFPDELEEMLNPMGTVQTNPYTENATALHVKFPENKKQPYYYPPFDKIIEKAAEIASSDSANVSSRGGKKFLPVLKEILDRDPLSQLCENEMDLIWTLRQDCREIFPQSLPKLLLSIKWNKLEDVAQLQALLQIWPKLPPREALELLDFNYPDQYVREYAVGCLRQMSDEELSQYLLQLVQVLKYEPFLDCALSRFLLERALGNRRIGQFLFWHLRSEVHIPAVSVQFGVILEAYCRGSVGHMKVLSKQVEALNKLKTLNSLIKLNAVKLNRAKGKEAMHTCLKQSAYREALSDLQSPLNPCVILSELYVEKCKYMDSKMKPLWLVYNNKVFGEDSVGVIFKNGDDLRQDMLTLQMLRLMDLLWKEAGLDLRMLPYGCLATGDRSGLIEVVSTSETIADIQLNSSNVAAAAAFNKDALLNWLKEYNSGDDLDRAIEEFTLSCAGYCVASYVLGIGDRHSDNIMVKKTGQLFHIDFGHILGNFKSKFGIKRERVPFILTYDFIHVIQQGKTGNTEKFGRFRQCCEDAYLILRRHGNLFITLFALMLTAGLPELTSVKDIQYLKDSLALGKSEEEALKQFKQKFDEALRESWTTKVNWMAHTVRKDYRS

Row | IC50 [nM] | SMILES
1 | < 100 | COc1c(OCCCS(=O)(=O)N2CCN(C)CC2)ccc2c1N=C(NC(=O)c1cccnc1)N1CCN=C21 [Example 1, N-(7-methoxy-8-{3-[(4-methylpiperazin-1-yl)sulfonyl]propoxy}-2,3-dihydroimidazo[1,2-c]quinazolin-5-yl)nicotinamide]
2 | 100 to 3000 | COc1c(OCc2ccc(S(C)(=O)=O)cc2)ccc2c1N=C(NC(=O)c1cccnc1)N1CCN=C21 [Example 2, N-(7-methoxy-8-{[4-(methylsulfonyl)benzyl]oxy}-2,3-dihydroimidazo[1,2-c]quinazolin-5-yl)nicotinamide]
3 | < 100 | COc1c(OCCCS(=O)(=O)N2CCOCC2)ccc2c1N=C(NC(=O)c1cccnc1)N1CCN=C21 [Example 3, N-{7-methoxy-8-[3-(morpholin-4-ylsulfonyl)propoxy]-2,3-dihydroimidazo[1,2-c]quinazolin-5-yl}nicotinamide]
4 | < 100 | COc1c(OCCCN2CCS(=O)(=O)CC2)ccc2c1N=C(NC(=O)c1cccnc1)N1CCN=C21 [Example 4, N-{8-[3-(1,1-dioxidothiomorpholin-4-yl)propoxy]-7-methoxy-2,3-dihydroimidazo[1,2-c]quinazolin-5-yl}nicotinamide]
5 | < 100 | COc1c(OCCCS(=O)(=O)N(C)C)ccc2c1N=C(NC(=O)c1cccnc1)N1CCN=C21 [Example 5, N-(8-{3-[(dimethylamino)sulfonyl]propoxy}-7-methoxy-2,3-dihydroimidazo[1,2-c]quinazolin-5-yl)nicotinamide]
6 | < 100 | CCN(CC)S(=O)(=O)CCCOc1ccc2c(c1OC)N=C(NC(=O)c1cccnc1)N1CCN=C21 [Example 6, N-(8-{3-[(diethylamino)sulfonyl]propoxy}-7-methoxy-2,3-dihydroimidazo[1,2-c]quinazolin-5-yl)nicotinamide]
7 | 100 to 3000 | O=C(NC1=Nc2c(OCCCS(=O)(=O)N3CCOCC3)cccc2C2=NCCN12)c1cccnc1 [Example 7, N-{7-[3-(morpholin-4-ylsulfonyl)propoxy]-2,3-dihydroimidazo[1,2-c]quinazolin-5-yl}nicotinamide]
8 | 100 to 3000 | CN1CCN(S(=O)(=O)CCCOc2cccc3c2N=C(NC(=O)c2cccnc2)N2CCN=C32)CC1 [Example 8, N-(7-{3-[(4-methylpiperazin-1-yl)sulfonyl]propoxy}-2,3-dihydroimidazo[1,2-c]quinazolin-5-yl)nicotinamide]
9 | 100 to 3000 | O=C(NC1=Nc2c(OCCCN3CCS(=O)(=O)CC3)cccc2C2=NCCN12)c1cccnc1 [Example 9, N-{7-[3-(1,1-dioxidothiomorpholin-4-yl)propoxy]-2,3 dihydroimidazo[1,2-c]quinazolin-5-yl}nicotinamide]
10 | < 100 | CS(=O)(=O)c1ccc(COc2cccc3c2N=C(NC(=O)c2cccnc2)N2CCN=C32)cc1 [Example 10, N-(7-{[4-(methylsulfonyl)benzyl]oxy}-2,3-dihydroimidazo[1,2-c]quinazolin-5-yl)nicotinamide]
11 | < 100 | CN(C)S(=O)(=O)CCCOc1cccc2c1N=C(NC(=O)c1cccnc1)N1CCN=C21 [Example 11, N-(7-{3-[(dimethylamino)sulfonyl]propoxy}-2,3-dihydroimidazo[1,2-c]quinazolin-5-yl)nicotinamide]
12 | < 100 | O=C(NC1=Nc2c(ccc(OCCCN3CCOCC3)c2OCCCS(=O)(=O)N2CCOCC2)C2=NCCN12)c1cccnc1 [Example 12]
13 | < 100 | CN1CCN(S(=O)(=O)CCCOc2c(OCCCN3CCOCC3)ccc3c2N=C(NC(=O)c2cccnc2)N2CCN=C32)CC1 [Example 13, N-[7-{3-[(4-methylpiperazin-1-yl)sulfonyl]propoxy}-8-(3-morpholin-4-ylpropoxy)-2,3-dihydroimidazo[1,2-c]quinazolin-5-yl]nicotinamide]
14 | < 100 | CCN(CC)S(=O)(=O)CCCOc1c(OCCCN2CCOCC2)ccc2c1N=C(NC(=O)c1cccnc1)N1CCN=C21 [Example 14, N-[7-{3-[(Diethylamino)sulfonyl]propoxy}-8-(3-morpholin-4-ylpropoxy)-2,3-dihydroimidazo[1,2-c]quinazolin-5-yl]nicotinamide]
